Data reported in paper PMC9919957 (2023).

Structure (SMILES) | melting point
NCC[C@H]1C[C@H](O)C(=O)O1 (hydrate or solvate) | 347 to 350 °C
O=C1CC(c2ccc(O)cc2)Oc2cc(OC3OC(CO)C(O)C3O)cc(O)c21 (centres unmarked) | 229 to 230 °C
